# Measurements: US12643913B2, “Mcl-1 inhibitor formulations” (AMGEN INC., priority 2020, dated 2026)
# “Also recorded” adds a separate entry of the source.
# Assay: Clinical observations in the beagle dog PK study
# Type: in vivo, male beagle dogs
# Conditions: 3 mg/kg PO, individual dogs
# Protocol: Briefly, during each phase five male beagle dogs were assigned to each group of the study. All animals were fasted for at least eight hours prior to dosing and through the first four hours of blood sample collection for each phase. Food was returned within 30 minutes following collection of the last blood sample at the four-hour collection interval. Each animal in Phase 1, received a single oral (PO) gavage dose of the appropriate test article formulation as outlined in the study design Table 6. Oral gavage dosing formulations were continuously stirred throughout dosing. The gavage tube was rinsed with approximately 10 mL of tap water following dosing (prior to removal of the gavage tube). Following each study phase a 7-day washout period was allowed prior to the dosing of the next phase. The same five dogs were assigned to either group 1 or group 2 formulations for the duration of the study.
# Test Article Administration: A total of 10 male beagle dogs were initially assigned to study. All animals were fasted for at least eight hours prior to dosing and through the first four hours of blood sample collection for each phase, where applicable (food will be returned within 30 minutes following collection of the last blood sample at the four hour collection interval, where applicable). Total fasting time […] 24 hours.
# Different pre-treatments were assigned for each phase of the study to mimic several scenarios: • 1. No pre-treatment was administered for Phase 1 as it served as a control. • 2. During Phase 2, at 1 hour 54 minutes to 1 hour 58 minutes prior to dose administration, all animals were pretreated with two 20 mg (40 mg total) oral tablets of famotidine followed by a 10 mL dose of deionized water. […] This was used to determine the role of stomach pH on exposure. • 3. During Phases 3 and 4, at 30 to 38 minutes prior to dose administration, all animals were pretreated with a single intramuscular dose of pentagastrin in phosphate buffered saline, pH 7.4, at a dose level of 0.006 mg/kg and a dose volume of 0.05 mL/kg. The pentagastrin dose was used to ensure that the dogs stomach pH was normalized to pH ˜2.0 as it is known that the dogs stomach pH is often higher than that of humans under resting conditions. • 4. In addition, […], at 1 hour 3 minutes to 1 hour 6 minutes prior to dose administration and 4 hours 10 minutes to 4 hours 11 minutes following dose by oral gavage at a dose level of 3 mg/kg and a dose volume of 4 mL/kg. This final phase was used to study if P-gp played a role in absorption.
smiles,measurement,setting,value
CO[C@]1(CN2CCN3CCCC[C@@H]3C2)/C=C/C[C@H](C)[C@@H](C)S(=O)(=O)NC(=O)c2ccc3c(c2)N(C[C@@H]2CC[C@H]21)C[C@@]1(CCCc2cc(Cl)ccc21)CO3 [AMG 397 Amorphous],Positive clinical findings (observation),"Phase 1 (Days 1 to 7), no pre-treatment","Yellow, frothy vomitus"
same,Positive clinical findings (observation),"Phase 2 (Days 8 to 14), famotidine pre-treatment","White, frothy vomitus; also recorded: Soft feces; also recorded: Yellow, frothy vomitus"
same,Positive clinical findings (observation),"Phase 3 (Days 15 to 21), pentagastrin pre-treatment","Salivation; also recorded: White, frothy vomitus; also recorded: Yellow, frothy vomitus"
same,Positive clinical findings (observation),"Phase 4 (Days 22 to 24), pentagastrin pre-treatment and inhibitor GF120918 pre- and post-treatment","Small amount of white,"
same,Positive clinical findings (observation),"Phase 5 (Days 71 to 73), inhibitor GF120918 pre- and post-treatment, 3 mg/kg","Salivation; also recorded: Watery feces; also recorded: Yellow, frothy vomitus; also recorded: Yellow, discolored feces; also recorded: Mucoid feces; also recorded: Tan, frothy vomitus"
